“And” between values parts separate entries of the source, which are not always exact repeats. Identical values can stand only once. Like-named read-outs stand apart in the source and are kept apart here.
Tests used:
Type in all cases: biochemical
Gox0644 [1] = biological target: T1, Gox0644 (Gluconobacter oxydans, UniProt Q5FT75); assay: NADPH-dependent α-ketocarbonyl reductase activity assay (rate of decrease of NADPH at 340 nm); conditions: for Gox0644 U/mg*: Table 3, 10 mM substrate, 40 mM K-phosphate buffer pH 7.0, 0.05 mM NAD(P)H, 30 °C, U/mg = µmol x min^-1 x mg protein^-1; for Specific Activity (U/mg)*: Table 4, cofactor NADPH, U/mg = µmol/mg·min; for reduction by Gox0644: result in words
Procedure: Reactions were induced by addition of enzyme or substrate. One unit was defined as the amount of enzyme activity catalyzing the conversion of 1 µmol of pyridine nucleotide per min at 30 °C. NMR Analysis of Biotransformation Products: Biotransformations were extracted with equal volumes of CDCl3. and ^13C NMR spectra were recorded on a Bruker Avance 300 DPX spectrometer operating at 300 MHz for ^1H NMR and at 75 MHz for ^13C NMR, respectively.
Reactions were induced by addition of enzyme or substrate. One unit of activity was defined as the amount of enzyme activity catalyzing the conversion of 1 µmol of pyridine nucleotide per min at 30 °C.
The standard reaction mixture (1 ml) for the reduction reactions of substrates contained 10 mM substrate, 40 mM potassium phosphate buffer (K-phosphate buffer) pH 7.0, 0.05 mM NAD(P)H, and the enzyme unless otherwise noted. Reactions were induced by addition of enzyme or substrate. One unit of activity was defined as the amount of enzyme activity catalyzing the conversion of 1 µmol of pyridine nucleotide per min at 30 °C. […] Table 3: Enzymatic activities with α-diketones, α-ketoaldehydes and α-ketoesters

Gox1615 = biological target: T2, Gox1615 (Gluconobacter oxydans, UniProt Q5FQJ0); assay: as above; conditions: for Gox1615 U/mg*: Table 3, 10 mM substrate, 40 mM K-phosphate buffer pH 7.0, 0.05 mM NAD(P)H, 30 °C, U/mg = µmol x min^-1 x mg protein^-1; for Specific Activity (U/mg)*: Table 5, cofactor NADPH, U/mg = µmol/mg·min
T2 sequence (Q5FQJ0 1-332): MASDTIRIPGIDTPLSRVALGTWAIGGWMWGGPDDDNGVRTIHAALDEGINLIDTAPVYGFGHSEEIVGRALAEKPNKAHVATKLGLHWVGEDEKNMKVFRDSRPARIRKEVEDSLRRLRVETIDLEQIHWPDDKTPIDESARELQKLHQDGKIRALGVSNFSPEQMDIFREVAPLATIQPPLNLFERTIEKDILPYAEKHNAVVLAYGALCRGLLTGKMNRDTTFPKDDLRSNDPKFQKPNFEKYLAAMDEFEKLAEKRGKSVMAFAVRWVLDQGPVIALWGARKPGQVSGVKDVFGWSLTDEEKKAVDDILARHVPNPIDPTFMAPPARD
Procedure: Measurement of enzyme activity: NADPH-dependent α-ketocarbonyl reductases were assayed by a routine method used for NAD(P)-linked enzymes by recording the rate of decrease of NADPH at 340 nm (ε = 6.22 mM^-1 x cm^-1)) with substrates at 30 °C. The reaction mixture (1 ml) for reduction of α-ketocarbonyl substrates contained 10 mM substrate, 40 mM potassium phosphate buffer pH 7.0, 0.025 mM NAD(P)H and the enzyme. Reactions were induced by addition of enzyme or substrate. One unit was defined as the amount of enzyme activity catalyzing the conversion of 1 µmol of pyridine nucleotide per min at 30 °C. NMR Analysis of Biotransformation Products: Biotransformations were extracted with equal volumes of CDCl3. and ^13C NMR spectra were recorded on a Bruker Avance 300 DPX spectrometer operating at 300 MHz for ^1H NMR and at 75 MHz for ^13C NMR, respectively. Spectra were processed using Bruker TonSpin 1.3 for Windows software and calibrated to the residual solvent peak of CDCl3 (δH = 7.26 / δC = 77.0).
NADPH-dependent α-ketocarbonyl reductases were assayed by a routine method used for NAD(P)-linked enzymes by recording the rate of decrease of NADPH at 340 nm (ε = 6.22 mM^-1.cm^-1) with substrates at 30 °C. The reaction mixture (1 ml) for reduction of α-ketocarbonyl substrates contained 10 mM substrate, 40 mM potassium phosphate buffer pH 7.0, 0.025 mM NADPH, and the enzyme. Reactions were induced by addition of enzyme or substrate. One unit of activity was defined as the amount of enzyme activity catalyzing the conversion of 1 µmol of pyridine nucleotide per min at 30 °C.
Purified NAD(P)-dependent oxidoreductases were assayed at 30 °C by a routine method used for NAD(P)-linked enzymes by recording the rate of decrease of NAD(P)H at 340 nm (ε = 6.22 mM^-1˙cm^-1) with substrates capable of reduction reactions. The standard reaction mixture (1 ml) for the reduction reactions of substrates contained 10 mM substrate, 40 mM potassium phosphate buffer (K-phosphate buffer) pH 7.0, 0.05 mM NAD(P)H, and the enzyme unless otherwise noted. Reactions were induced by addition of enzyme or substrate. One unit of activity was defined as the amount of enzyme activity catalyzing the conversion of 1 µmol of pyridine nucleotide per min at 30 °C. Measurement of the protein content was performed by the method of Bradford (Bradford M.M., Anal. Biochem. 72:248-254 (1976)). Table 3: Enzymatic activities with α-diketones, α-ketoaldehydes and α-ketoesters

Gox1122 = biological target: T3, Gox1122 (Gluconobacter oxydans, UniProt Q5FRV6); assay: Aldehyde dehydrogenase activity and kinetic constants
T3 sequence (Q5FRV6 1-463): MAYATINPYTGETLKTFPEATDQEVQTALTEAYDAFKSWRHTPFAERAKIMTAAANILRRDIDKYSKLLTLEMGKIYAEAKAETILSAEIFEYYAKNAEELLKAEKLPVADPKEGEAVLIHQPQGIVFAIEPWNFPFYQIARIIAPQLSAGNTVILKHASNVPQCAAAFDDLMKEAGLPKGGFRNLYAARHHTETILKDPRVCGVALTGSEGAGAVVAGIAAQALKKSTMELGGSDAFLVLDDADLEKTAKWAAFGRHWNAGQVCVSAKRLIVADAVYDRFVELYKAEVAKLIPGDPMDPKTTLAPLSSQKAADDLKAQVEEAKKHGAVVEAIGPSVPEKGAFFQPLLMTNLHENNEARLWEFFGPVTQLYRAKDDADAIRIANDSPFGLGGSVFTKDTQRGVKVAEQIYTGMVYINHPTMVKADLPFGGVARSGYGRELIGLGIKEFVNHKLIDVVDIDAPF
Procedure: The enzyme is used in a combined enzymatic reaction between the NADPH-dependent reductases (see above) that form α-hydroxy carbonyl compounds.
Determination of pH and temperature optima and enzyme kinetics: The optimum pH for enzyme activities was determined by a modified method of Salusjärvi, T. et al., Appl. Microbiol. Biotechnol. 65:306-314 (2004) using the following buffer system (50 mM final concentration each): sodium acetate pH 4.5 - 6.5, potassium phosphate pH 6.5 - 8.0, Tris-HCl pH 8.0 - 10. Temperature optima for the biocatalysts were determined under standard reaction conditions at temperatures ranging from 20 - 80 °C. The Michaelis constant (Km) for the proteins was determined from purified enzyme by Lineweaver-Burk plots. Assays were performed at optimum pH for each enzyme and at 30 °C using the best substrate and a targeted substrate. The Km for each substrate was calculated using concentrations of 0.0025 to 10 mM, and the Km NAD(P)H and NAD(P) was calculated using concentrations of 0.01 to 0.5 mM
2.9 Kinetic parameters of the keto carbonyl reductases: Kinetic constants were determined from purified enzyme by Lineweaver-Burk plots. The Km and Vmax values for the substrates were calculated using concentrations of 0.025 to 10 mM. […] 8.

Gox0644 [2] = biological target: T1, Gox0644; assay: Acetaldehyde tolerance test
Description: The products derived from the α-diketone and α-ketoaldehyde substrate reactions were generated according to the cofactor regeneration protocol. This method overcomes the dependence of the enzymes on reduced cofactor by coupling the substrate reactions of Gox0644 and Gox1615, with the cofactor NADP reduction reaction based on the acetaldehyde oxidoreductase Gox1122 using acetaldehyde. […] In both the reactions with phenylglyoxal and 2,3-pentanedione, Gox0644 activity remained similar to the control reaction consisting of a reaction without acetaldehyde (Tab. 9/10). […] In the reaction with 2,3-pentanedione there was a slight decrease of about 20% from the control, however, the activity levels were still very high at 50.2 U/mg. […] Table 9: Gox0644 acetaldehyde tolerance tests with phenylglyoxal

Structure (SMILES): CCC(=O)C(=O)CC [3,4-hexanedione]
- Gox0644 U/mg* (Gox0644 [1]): 7.3 U/mg
- Gox1615 U/mg* (Gox1615): 2.0 U/mg
- Specific Activity (U/mg)* (Gox1615): 2.0 U/mg

Structure (SMILES): CCOC(=O)C(C)=O [ethyl pyruvate]
- Gox0644 U/mg* (Gox0644 [1]): 92.8 U/mg
- activity (Gox0644 [1]; substrates showing the highest activities): 93 U/mg protein
- Gox1615 U/mg* (Gox1615): 1.2 U/mg
- Specific Activity (U/mg)* (Gox1615): 1.2 U/mg

Structure (SMILES): NC(=O)c1ccc[n+]([C@@H]2O[C@H](COP(=O)(O)OP(=O)(O)OC[C@H]3O[C@@H](n4cnc5c(N)ncnc54)[C@H](OP(=O)(O)O)[C@@H]3O)[C@@H](O)[C@H]2O)c1 [NADP]
- Km (Gox1122; cofactor NADP, read-out: apparent Km value): 73 µM

Structure (SMILES): CC(=O)O [acetic acid]
- reverse reduction reaction (Gox1122; using NADPH, pH range of 4-10): No reverse reduction reaction

Structure (SMILES): CC(=O)C(C)=O [2,3-butanedione]
- Specific Activity (U/mg)* (Gox0644 [1]): 60.0 U/mg
- Specific Activity (U/mg)* (Gox1615): 6.0 U/mg

Structure (SMILES): CC(=O)C(=O)OCCC(C)C [isoamyl pyruvate]
- Gox0644 U/mg* (Gox0644 [1]): 63.1 U/mg
- Gox1615 U/mg* (Gox1615): 4.7 U/mg
- Specific Activity (U/mg)* (Gox1615): 4.7 U/mg

Structure (SMILES): CC(=O)CC(C)=O [acetylacetone]
- reduction by Gox0644 (Gox0644 [1]): not reduced

Structure (SMILES): O=C(O)C(=O)[C@@H](O)[C@H](O)C(=O)CO [2,5-diketogluconate]
- reduction by Gox0644 (Gox0644 [1]): reduced

Structure (SMILES): CC(=O)C(C)O (stereo not shown) [acetoin]
- reduction by Gox0644 (Gox0644 [1]): not reduced

Structure (SMILES): CCC(=O)C(=O)O [2-oxo butyric acid]
- reduction by Gox0644 (Gox0644 [1]): not reduced

Structure (SMILES): O=CC=O [glyoxal]
- Specific Activity (U/mg)* (Gox0644 [1]): 1.1 U/mg
- Specific Activity (U/mg)* (Gox1615): 5 U/mg

Structure (SMILES): CC=O [acetaldehyde]
- Vmax (Gox1122; 40 mM KPB at optimal pH and 30 °C): 196 µmol/min x mg
- Km (Gox1122; 40 mM KPB at optimal pH and 30 °C, read-out: Km): 200 µM
- apparent Vmax value (Gox1122; fixed 0.5 mM NADP, acetaldehyde as the varied substrate): 196 U/mg protein
- Km (Gox1122; several concentrations of the aldehyde from 0.0025 to 10 mM, read-out: Km value): 255 µM
- Gox0644 activity (Gox0644 [2]; substrate 2,3-pentanedione, 10mM acetaldehyde, control without acetaldehyde 65.7 U/mg): 67.9 U/mg
- Gox0644 activity (Gox0644 [2]; substrate 2,3-pentanedione, 30mM acetaldehyde, control without acetaldehyde 65.7 U/mg): 59.5 U/mg
- Gox0644 activity (Gox0644 [2]; substrate 2,3-pentanedione, 50mM acetaldehyde, control without acetaldehyde 65.7 U/mg): 50.2 U/mg and 50.1 U/mg
- Gox0644 activity (Gox0644 [2]; substrate phenylglyoxal, 10mM acetaldehyde, control without acetaldehyde 38.5 U/mg): 29.6 U/mg
- Gox0644 activity (Gox0644 [2]; substrate phenylglyoxal, 30mM acetaldehyde, control without acetaldehyde 38.5 U/mg): 37.1 U/mg
- Gox0644 activity (Gox0644 [2]; substrate phenylglyoxal, 50mM acetaldehyde, control without acetaldehyde 38.5 U/mg): 39.3 U/mg
- Gox0644 activity (Gox0644 [2]; substrate phenylglyoxal, 100mM acetaldehyde, control without acetaldehyde 38.5 U/mg): 31.2 U/mg
- inhibition at 100000 µM (Gox0644 [2]; substrate phenylglyoxal, 100 mM of acetaldehyde, versus control, read-out: decrease in activity): ≤ 20%

Structure (SMILES): O=C(C(=O)c1ccccc1)c1ccccc1 [benzil]
- Specific Activity (U/mg)* (Gox0644 [1]): 14.0 U/mg

Structure (SMILES): CCCC(=O)C(C)=O [2,3-hexanedione]
- Gox0644 U/mg* (Gox0644 [1]): 50.1 U/mg
- Gox1615 U/mg* (Gox1615): 6.5 U/mg
- Specific Activity (U/mg)* (Gox1615): 6.5 U/mg

Structure (SMILES): CC(C)=O [acetone]
- reduction by Gox0644 (Gox0644 [1]): not reduced

Source: EP2316926B1, “Enantioselective production of alpha-hydroxy carbonyl compounds” (priority 2009, dated 2011)
